Results reported in patent publication US12599141B2, “Rod-shaped plant viral nanoparticles or virus-like particles for agricultural applications” (priority 2016, dated 2026).

Key:
[1] = CV release profile from CVTMGMV, dialysis-based assay; type: physicochemical; settings: 10 mM KP buffer
Method: The release of CV from TMGMV was evaluated using a dialysis-based assay.
Next, we evaluated the release profile of CV from the TMGMV nanocarrier. […] We tested the release profile at room temperature and 4° C. to evaluate two extreme upper soil thermal conditions. Sodium acetate (pH 5.2) and PBS (pH 7.4) buffer solutions were chosen to mimic the acidic and neutral soil environments, respectively. Diffusion of CV from CVTMGMV was also evaluated in KP (pH 7.8) buffer, which was used during loading and storing conditions of the sample. Free CV, in a concentration matched to the concentration and number loaded into TMGMV, was also dialyzed in KP buffer (pH 7.8) at 4° C. as a positive control.

[2] = Soil mobility (leaching through 4 cm top soil column); type: physicochemical
Method: The following soil mobility test was designed to establish the leaching of CVTMGMV and free CV in a soil column. […] One mL aliquots of CVTMGMV or free CV (the concentration was 100 mM normalized to the drug concentration) were applied atop of the soil columns, followed by 50 elution fractions of 300 μL DI water. Each collected elution fraction was centrifuged for 10 min at 12,000 rpm to precipitate remaining soil particles. The supernatant was subsequently analyzed by UV-vis spectroscopy (see above).
A soil mobility test was designed to establish the leaching of CVTMGMV and free CV in soil. Briefly, top soil was packed in a plastic column up to a height of 4 cm and saturated with deionized (DI) water. CVTMGMV or free CV was applied atop the soil columns, followed by DI water. Fractions were collected from the soil column, purified, and analyzed by UV-vis spectroscopy for the presence of TMGMV and CV. The λ260 (RNA) and λ280 (CP) wavelengths were monitored to quantify the amount of TMGMV that leached through the soil.

C. elegans = C. elegans motility assay in liquid culture; type: in vivo, Caenorhabditis elegans
Method: OP50-1 E. coli and C. elegans strain N2 were provided by the Caenorhabditis Genetics Center (CGC) from the University of Minnesota, which is funded by NIH office of Research Infrastructure Programs P40 OD010440. Nematodes were cultured using 100 mm×15 mm sterile polystyrene Petri dishes (FB0875712, Fisher). […] Nematodes were then cultured on the OP50-1 E. coli plates at 22° C. […] OP50-1 E. coli pellet stocks were resuspended in S basal and added to the liquid culture to provide a food source to the nematodes.
Bioavailability of CVTMGMV and free CV to C. elegans was investigated in liquid culture (see above). 50 Nematodes were added to each well of a 24-well culture plate to a final volume of 1 mL. […] The percent of affected nematodes (sum of the nematodes on scale (2) and (3)) as a function of time and the effective concentration (EC50) were determined comparing free CV, TMGMV, and CVTMGMV.
Bioavailability of CVTMGMV and free CV in Caenorhabditis elegans (C. elegans) was investigated in liquid culture. C. elegans nematode motility was classified as either (1) totally immobilized, (2) impaired motility, or (3) […] nematodes. To illustrate the data that were collected, a series of snap shots of C. elegans incubated with no treatment, 10 μM of CV, and 10 μM of CVTMGMV were taken every second for 60 s. […] Five nematodes were selected in each treatment regime and pseudocolored to illustrate their motility.
At specific time points, nematodes were observed under a white light microscope, and the percent of affected nematodes (sum of the nematodes on scale (2) and (3)) was quantified as a function of time. The effective concentration (EC50), defined as the concentration of CV at which half of the maximum immobilization of C. elegans was reached, was determined for free CV and CVTMGMV (FIGS. 5D-G).

[3] = ref: PubChem CID 11057; cited from earlier work

For `CN(C)c1ccc(C(=C2C=CC(=[N+](C)C)C=C2)c2ccc(N(C)C)cc2)cc1` [CV, hexamethyl parparosaniline chloride], the “time to 50% of CV released/dialyzed” value ([1]; pH 7.8, 4° C. (storing conditions)) was at most 1.6 h, the “time to complete release of CV” value ([1]; pH 7.8, 4° C., dialysis over 72 h) was under 18 h and the “eluted concentration of CV, times lower than CVTMGMV” value [2] was 3.6 times. For the same compound, the “incubation time to maximum efficacy” value (C. elegans; 1 μM) was 6 h, the nematodes paralyzed/dead (C. elegans; 1 μM, within the first hour) was “about 15%” and the “incubation time to maximum efficacy” value (C. elegans; 10 μM) was 6 h. For the same compound, the “motility by time lapse imaging” value (C. elegans; 10 μM, after 3 h of incubation) was “severe motility impairment”, the nematodes paralyzed/dead (C. elegans; 10 μM, within the first hour) was “about 30%” and the nematodes paralyzed/dead (C. elegans; 100 μM, within 1 h, 22° C.) was “Sixty”. For the same compound, the Emax at 1 µM (C. elegans; Caenorhabditis elegans, 6 h, read-out: maximum efficacy (nematodes affected)) was about 25%, the EC50 (C. elegans; Caenorhabditis elegans, 24 h, read-out: EC50 (concentration of CV at half of maximum immobilization of C. elegans)) was 3.7 µM and the Emax at 10 µM (C. elegans; Caenorhabditis elegans, read-out: maximum efficacy (nematodes affected)) was about 50%. For the same compound, the “effect on nematode motility vs untreated population” value (C. elegans; doses lower than 1 μM) was “no significant effect on nematode motility” and the Koc [3] was 6.1×10^5.
